Patent publication US20240010606A1, “FUMARATE DERIVATIVES AND THEIR MEDICAL USE” (Sitryx Therapeutics Limited, priority 2020, published 2024)
Where a name gives a salt, the structure may show the parent alone.

Tests used:
IL-6 = experiment: THP-1 AlphaLISA IL-6 cytokine assay; assay type: cell-based; conditions: Homo sapiens, THP-1, differentiated THP-1 cells
Protocol: (§1) Biological Example 1—THP-1 AlphaLISA IL-1β and IL-6 Cytokine Assay Measuring Inhibitory Effects on IL-1, and IL-6 Cytokine Output from THP-1s The cytokine inhibition profiles of compounds of formula (I) were determined in a differentiated THP-1 cell assay. All assays were performed in RPMI-1640 growth medium (Gibco), supplemented with 10% fetal bovine serum (FBS; Gibco), 1% penicillin-streptomycin and 1% sodium pyruvate unless specified otherwise. The IL-1β and IL-6 cytokine inhibition assays were each run in a background of differentiated THP-1 cells as described below. All reagents described were from Sigma-Aldrich unless specified otherwise. Compounds were prepared as 10 mM DMSO stocks. THP-1 cells were expanded as a suspension up to 80% confluence in appropriate growth medium. Cells were harvested, suspended, and treated with an appropriate concentration of phorbol 12-myristate 13-acetate (PMA) over a 72 hr period (37° C./5% CO2). Following 72 hrs of THP-1 cell incubation, cellular medium was removed and replaced with fresh growth media containing 1% of FBS. Working concentrations of compounds were prepared separately in 10% FBS treated growth medium and pre-incubated with the cells for 30 minutes (37° C./5% CO2). Following the 30 minute compound pre-incubation, THP-1s were treated with an appropriate concentration of LPS and the THP-1s were subsequently incubated for a 24 hr period (37° C./5% CO2). An appropriate final concentration of Nigericin was then dispensed into the THP-1 plates and incubated for 1 hour (37° C./5% CO2) before THP-1 supernatants were harvested and collected in separate polypropylene 96-well holding plates. Reagents from each of the IL-1β and IL-6 commercial kits (Perkin Elmer) were prepared and run according to the manufacturer's instructions. Subsequently, fluorescence signal detection in a microplate reader was measured (EnVision® Multilabel Reader, Perkin Elmer). Percentage inhibition was calculated per cytokine by normalizing the sample data to the high and low controls used within each plate (+/−LPS respectively). Percentage inhibition was then plotted against compound concentration and the 50% inhibitory concentration (IC50) was determined from the resultant concentration-response curve.

IL-1β = experiment: THP-1 AlphaLISA IL-1β cytokine assay; assay type: cell-based; conditions: for IC50: Homo sapiens, differentiated THP-1 cells, Table 2, compounds of formula (II)
Protocol: as §1

NRF2 = NRF2 activation assay (DiscoverX PathHunter NRF2 translocation kit, U2OS cells); assay type: cell-based
Protocol: Biological Example 2—NRF2 Activation Assay Measuring Compound Activation Effects on the Anti-Inflammatory Transcription Factor NRF2 in DiscoverX PathHunter NRF2 Translocation Kit Potency and efficacy of compounds of formula (I) against the target of interest to activate NRF2 (nuclear factor erythroid 2-related factor 2) were determined using the PathHunter NRF2 translocation kit (DiscoverX). The NRF2 translocation assay was run using an engineered recombinant cell line, utilising enzyme fragment complementation to determine activation of the Keap1-NRF2 protein complex and subsequent translocation of NRF2 into the nucleus. Enzyme activity was quantified using a chemiluminescent substrate consumed following the formation of a functional enzyme upon PK-tagged NRF2 translocation into the nucleus. Additionally, a defined concentration of dimethyl fumarate was used as the ‘High’ control to normalise test compound activation responses to. U2OS PathHunter eXpress cells were thawed from frozen prior to plating. Following plating, U2OS cells were incubated for 24 hrs (37° C./5% CO2) in commercial kit provided cell medium. Following 24 hrs of U2OS incubation, cells were directly treated with an appropriate final concentration of compound. Following compound treatment, the U2OS plates were incubated for a further 6 hours (37° C./5% CO2) before detection reagent from the PathHunter NRF2 commercial kit was prepared and added to test plates according to the manufacturer's instructions. Subsequently, the luminescence signal detection in a microplate reader was measured (PHERAstar®, BMG Labtech). Percentage activation was calculated by normalising the sample data to the high and low controls used within each plate (+/−DMF). Percentage activation/response was then plotted against compound concentration and the 50% activation concentration (EC50) was determined from the plotted concentration-response curve.

hepatocytes [1] = experiment: Hepatocyte stability assay, mouse; assay type: in vitro ADME; conditions: 10 μM compound, Table 6
Description: (§2) Biological Example 3—Hepatocyte Stability Assay
(§3) Defrosted cryo-preserved hepatocytes (viability >70%) are used to determine the metabolic stability of a compound via calculation of intrinsic clearance (CIint; a measure of the removal of a compound from the liver in the absence of blood flow and cell binding). Clearance data are particularly important for […] as they can be used in combination with in vivo data to predict the half-life and oral bioavailability of a drug.
(§4) The metabolic stability in hepatocytes assay involves a time-dependent reaction using both positive and negative controls. The cells must be pre-incubated at 37° C. then spiked with test compound (and positive control); samples taken at pre-determined time intervals are analysed to monitor the change in concentration of the initial drug compound over 60 minutes. A buffer incubation reaction (with no hepatocytes present) acts as a negative control and two cocktail solutions, containing compounds with known high and low clearance values (verapamil/7-hydroxycoumarin and propranolol/diltiazem), act as positive controls. • 1. The assay is run with a cell concentration of 0.5×10^6 cells/mL in Leibovitz buffer. • 2. All compounds and controls are run in duplicate. • 3. Compound concentration is 10 μM. • 4. All compounds and controls are incubated with both cells and buffer to show turnover is due to hepatic metabolism. • 5. All wells on the incubation plate will have 326.7 μL of either cells or buffer added. • 6. Prior to assay, cell and buffer-only incubation plates are preincubated for 10 mins at 37° C. • 7. The assay is initiated by adding compounds, 3.3 μL of 1 mM in 10% DMSO-90% Buffer; final DMSO concentration is 0.1%. • 8. Samples are taken at regular timepoints (0, 5, 10, 20, 40, 60 min) until 60 mins. • 9. Sample volume is 40 μL and it is added to 160 μL of crash solvent (acetonitrile with internal standard) and stored on ice. • 10. At the end of the assay, the crash plates are centrifuged at 3500 rpm for 20 mins at 4° C. • 11. 80 μL of clear supernatant is removed and mixed with 80 μL of deionised water before being analysed by LC-MS/MS.
(§5) Raw LC-MS/MS data are exported to, and analysed in, Microsoft Excel for determination of intrinsic clearance. The percentage remaining of a compound is monitored using the peak area of the initial concentration as 100%. Intrinsic clearance and half-life values are calculated using a graph of the natural log of percentage remaining versus the time of reaction in minutes. Half-life (min) and intrinsic clearance (CIint in μL min^−1 10^−6 cells) values are calculated using the gradient of the graph (the elimination rate constant, k) and Equations 1 and 2.

hepatocytes [2] = experiment: Hepatocyte stability assay, human; assay type: in vitro ADME; conditions: 10 μM compound, Table 6
Description: as §2, §3, §4, §5

[3] = Table 2, compounds of formula (II)
[4] = +GSH, Table 4, compounds of formula (II)
[5] = −GSH, Table 4, compounds of formula (II)

SMILES: O=C(O)/C=C/C(=O)OC1(c2ccc(C(F)F)cc2)CCC1 [Intermediate 31, (E)-4-(1-(4-(difluoromethyl)phenyl)cyclobutoxy)-4-oxobut-2-enoic acid]
- IC50 (IL-6; [3]): 6 to 30 µM
- IC50 (IL-1β): 6 to 30 µM

SMILES: N#Cc1ccc(C2(OC(=O)/C=C/C(=O)O)CCC2)cc1 [Intermediate 27, (E)-4-(1-(4-cyanophenyl)cyclobutoxy)-4-oxobut-2-enoic acid]
- IC50 (IL-6; [3]): 6 to 30 µM
- IC50 (IL-1β): 50 to 100 µM

SMILES: CC1(OC(=O)/C=C/C(=O)O)CCC1 [Intermediate 4, (E)-4-(1-methylcyclobutoxy)-4-oxobut-2-enoic acid]
- EC50 (NRF2; [4]): 23 to 48.4 µM
- NRF2 activation Emax (NRF2; [4]): + (+ means >50-<87%)
- EC50 (NRF2; [5]): < 23 µM
- NRF2 activation Emax (NRF2; [5]): +++ (+++ means >114-150%)
- IC50 (IL-1β): > 100 µM
- activity in the THP-1 cytokine assays (in words) (IL-1β; THP-1 IL-1β and IL-6 assays): not active

SMILES: N#C[C@H]1C[C@](OC(=O)/C=C/C(=O)O)(c2ccc(C(F)(F)F)cc2)C1 (single isomer, unassigned) [Intermediate 34, (E)-4-((cis)-3-cyano-1-(4-(trifluoromethyl)phenyl)cyclobutoxy)-4-oxobut-2-enoic acid]
- IC50 (IL-6; [3]): 30 to 50 µM
- IC50 (IL-1β): 6 to 30 µM

SMILES: O=C(O)/C=C/C(=O)OC1(c2ncc(C(F)(F)F)cn2)CCC1 [Intermediate 39, (E)-4-oxo-4-(1-(5-(trifluoromethyl)pyrimidin-2-yl)cyclobutoxy)but-2-enoic acid]
- IC50 (IL-6; [3]): 30 to 50 µM
- IC50 (IL-1β): 30 to 50 µM

SMILES: O=C(O)/C=C/C(=O)OC(c1ccc(C(F)(F)F)cc1)C(F)(F)F (single isomer, unassigned) [Intermediate 45, (E)-4-oxo-4-(2,2,2-trifluoro-1-(4-(trifluoromethyl)phenyl)ethoxy)but-2-enoic acid]
- CIint (hepatocytes [1]): + (+ means >110-277)
- T½ (hepatocytes [1]): 4 min
- CIint (hepatocytes [2]): ++ (++ means >30-110)
- T½ (hepatocytes [2]): ++ (++ means 5-29)

SMILES: O=C(O)/C=C/C(=O)OC1(c2cc(F)c(F)c(F)c2)CCC1 [Intermediate 28, (E)-4-oxo-4-(1-(3,4,5-trifluorophenyl)cyclobutoxy)but-2-enoic acid]
- IC50 (IL-6; [3]): 6 to 30 µM
- IC50 (IL-1β): 6 to 30 µM

SMILES: COC(=O)/C=C/C(=O)OC [dimethyl fumarate, Dimethyl fumarate, reference compound]
- IC50 (IL-6; LPS then Nigericin, Table 1): 9.3 µM
- EC50 (NRF2; +GSH, Table 3): > 100 µM
- NRF2 activation Emax (NRF2; +GSH, normalised to dimethyl fumarate high control, Table 3): 17.1%
- EC50 (NRF2; −GSH, Table 3): 6.1 µM
- NRF2 activation Emax (NRF2; −GSH, normalised to dimethyl fumarate high control, Table 3): 100%

SMILES: O=C(O)/C=C/C(=O)OC1(c2ccc(Cl)cn2)CCC1 [Intermediate 24, (E)-4-(1-(5-chloropyridin-2-yl)cyclobutoxy)-4-oxobut-2-enoic acid]
- IC50 (IL-6; [3]): 6 to 30 µM
- IC50 (IL-1β): 30 to 50 µM

SMILES: CCCCCCCCOC(=O)/C=C/C(=O)O [Intermediate 5, Octyl Fumarate]
- EC50 (NRF2; [4]): < 23 µM
- NRF2 activation Emax (NRF2; [4]): ++++ (++++ means >150%)
- EC50 (NRF2; [5]): < 23 µM
- NRF2 activation Emax (NRF2; [5]): ++++ (++++ means >150%)

SMILES: O=C(O)/C=C/C(=O)OC1(c2ccc(C(F)(F)F)nc2)CCC1 [Intermediate 15, (E)-4-oxo-4-(1-(6-(trifluoromethyl)pyridin-3-yl)cyclobutoxy)but-2-enoic acid]
- IC50 (IL-6; [3]): > 100 µM
- IC50 (IL-1β): 30 to 50 µM

SMILES: COc1cc(OC)cc(C2(OC(=O)/C=C/C(=O)O)CCC2)c1 [Intermediate 40, (E)-4-(1-(3,5-dimethoxyphenyl)cyclobutoxy)-4-oxobut-2-enoic acid]
- IC50 (IL-6; [3]): 30 to 50 µM
- IC50 (IL-1β): > 100 µM

SMILES: O=C(O)/C=C/C(=O)OC1(c2ccc(C(F)(F)F)cn2)CCC1 [Intermediate 9, (E)-4-oxo-4-(1-(5-(trifluoromethyl)pyridin-2-yl)cyclobutoxy)but-2-enoic acid]
- IC50 (IL-6; [3]): 6 to 30 µM
- IC50 (IL-1β): 6 to 30 µM

SMILES: O=C(O)/C=C/C(=O)OC1(c2ccc(C(F)(F)F)cc2)CCOCC1 [Intermediate 35, (E)-4-oxo-4-((4-(4-(trifluoromethyl)phenyl)tetrahydro-2H-pyran-4-yl)oxy)but-2-enoic acid]
- IC50 (IL-6; [3]): > 100 µM
- IC50 (IL-1β): 50 to 100 µM

SMILES: O=C(O)/C=C/C(=O)OC1(c2ccc(Cl)cc2)CCC1 [Intermediate 13, (E)-4-(1-(4-chlorophenyl)cyclobutoxy)-4-oxobut-2-enoic acid]
- IC50 (IL-6; [3]): 6 to 30 µM
- IC50 (IL-1β): 6 to 30 µM
